Test results as given in patent US6057359A, “Spontaneously dispersible concentrates comprising esters of baccatin-III compounds having antitumor and antiviral activity” (Marigen S.A., priority 1997, dated 2000).

What was measured:
[1] = system: HIV isolates from patients (strains 21/4 and 4/5); test: Effect on HIV infectivity, residual HIV titre (direct antiviral efficacy); type: cell-based; settings: mean titre of 2 strains, 3 h, +4° C.
Procedure: Aliquote amounts of two HIV isolates from patients (strains 21/4 and 4/5) resuspended in complete RPMI medium at a titre of 300 CCID50 /ml were incubated during 3 hours, +4° C. with MARIGENOL®-concentrate, in the form of an aqueous microemulsion, at concentrations ranging from 10^-2 to 10^-5 in complete medium, as well as with ("empty") carrier concentrate and with medium alone as controls.
After pre-incubation, residual HIV titre was assessed by the CCID50 method (Cell-culture infecting dose 50%). Briefly, serial twofold dilutions were prepared from each of the six virus suspensions, and 200 μl of each dilution were incubated for 90 minutes with MT-4 cell pellets prepared as stated before (see 7.1). At the end of incubation, pellets were brought to initial cell concentration by adding appropriate amounts of complete RPMI medium to each tube, whose content was then distributed into 8 wells of a flat-bottom microtitre plate in 200 μl volumes, each vertical row coresponding to a dilution. After 5 days of incubation, cell viability was assessed by the MTT test as stated above, and the HIV titre was expressed as the reciprocal of that dilution which infects 4 out of 8 wells (50%) in a row. A well was considered infected when its O.D. readout at 550 nm was lower than the average readout of 8 control wells minus 2.8 times the standard error of the mean (lower 95% confidence limit).

[2] = system: Herpes-Virus (Herpes Simplex, HSV); test: Antiviral/virucidal efficacy against HSV, plaque reduction in VERO cells; type: cell-based; settings: compared to simple medium, 2880 min
Procedure: (§1) The antiviral/virucidal efficacy against HSV of an aqueous microemulsion prepared with appropriate MARIGENOL®-concentrates was assessed on a confluent monolayer culture of VERO cells (i.e. "African green monkey kidney cells"). The host cells were pretreated during 3 h at 4° C. with an inventive microemulsion or with culture medium alone and then infected with HSV at a constant dose of 10^4 plaque forming units (PFU). After virus absorption during 1 h, and subsequent addition of 2% methylcellulose in order to limit virus spreading, cells were cultured in MEM medium+2% foetal calf serum for 48 h, then fixed and stained with 1% crystal violet in methanol. The reduction of viral titre was expressed as percent reduction of plaques of lysis observed in pre-treated cells, compared to controls.
Infection was also detected by IFA at 24 h after inoculation, using a Mab specific for a glycoprotein common to HSV-1/HSV-2 (clone FQ 12, Argene Biosoft, BIOLINE, Torino).
The following test substances were assessed as concentrates in aqueous dilution (starting with a microemulsion 1:100): […]

human CMV-strain AD169 = test: Virucidal efficacy on human cytomegalovirus (immunofluorescence); type: cell-based; settings: control 15'000
Procedure: The assay was conducted with human, embryonic Lung Fibroblasts as host cells, which were then infected with the human CMV-strain AD169.
The virus strain was incubated during 4 h at +4° C. with varying concentrations of the test substance C16:0 -β-Sitosteryl ester, formulated as a 1%-concentrate and diluted to aqueous microemulsions 10^-3, 10^-4 and 10^-5. It was subsequently inoculated on monolayers of human embryonic lung fibroblasts (which are very susceptible to the CMV-virus). These host cells were grown in shell vials in minimal essential medium (MEM, GIBCO, Life Technologies), containing 10% fetal calf serum. A confluent culture was raised with 120,000 cells per shell-vial. The infection was effected by means of centrifugation during 45 minutes at 1'500 rpm at RT. Thereafter, the injection-suspension was eliminated and 1 ml medium MEM+2% FCS was added (same medium as before). The infected cell culture was maintained during 20 h at 37° C., in a 5%-CO2 -atmosphere. […]
Quantification of the virucidal effect was measured with an immunofluorescence assay. […]
This is followed by 3 washing operations with PBS and a second incubation with the fluorescence-marked antibody IgG goat anti-IgG mouse. […]
The number of IEA-positive cells was recorded. The nuclei which were positive against the CMV-specific antigen were counted by means of the fluorescence microscope, magnification 25×, in aqueous phase.

VERO cells = test: Cell lysis in VERO cell layers; type: cell-based, African green monkey; settings: dilution 1:1'000; plaque reduction table
Procedure: as §1

HIV strain III B = test: Protective effect on MT-4 host cells against HIV infection (MTT); type: cell-based; settings: stock ultramicroemulsions, 10^-3 to 10^-4, concentration not stated
Procedure: MT4-cells (an immortalized T-cell line highly sensitive to HIV cytopathoge-nic effect, CPE) of a 24 h-old culture were suspended at a concentration of 2×10^5 /ml, divided into 1.2 ml aliquotes in polypropylene tubes, and pelleted by centrifugation. Pellets were either infected with 200 μl of a stock solution of HIV strain III B (Titre: 600 CCID50 /ml), or mock-infected with plain medium, for 90 min. at 37° C, upon which 1 ml of plain medium was added to each tube, restoring initial cell concentration and bringing HIV concentration to 100 CCID50 /ml. [CCID50 /ml=50% cell culture infective dose].
100 μl volumes of the MARIGENOL®-Concentrates to be tested, diluted to aqueous microemulsions 10^-3 and then further diluted from 10^-3 to […] in RPMI 1640 medium, or of plain medium, were added in triplicate to flat-bottom, 96-well microtitre plates. […]
Cultures were incubated at 37° C., in a humified atmosphere of 5% CO2 +95% air. Five days after infection, 100 μl of supernatant were removed from each well, and cell viability was assessed by reduction of a methyl-tetrazolium salt (MTT, Sigma, 25 μl/well of a 5 mg/ml solution) in a 2-h incubation test, followed by solubilization with 100 μl DMSO/well and photometric readout of the optical density at 550 nm. Residual cell viability was expressed as percent difference from HIV CPE-control cultures mean readout, considered as zero.

[3] = system: Py6 cells (Virus transformed 3T3 mouse-fibroblasts); test: Test of cell toxicity / cytotoxicity of MARIGENOL concentrates on Py6 cells (plaque assay, serial dilution); type: cell-based; settings: for in dilution active up to 1: (microemulsion ME 1:100): dilution of ME 1:100, given in Mio.
Procedure: A biological assay system using microtiter plates and serial dilutions has been developed. Batches of 10^4 tumour cells per ml were set up in culture medium RPMI 1640 and inactivated with 10% of fetal calf serum (GIBCO); they are spread at a density low enough to enable them to grow during the assay, in non-confluent monolayers. Samples are added after 6 to 24 hours, with 100 μl per row, to which 100 μl of medium are added in the first well. Half of this mixture is withdrawn, transferred into the next well and again treated with 100 μl of medium, etc.
[…] They are then stained and fixed using 0.1% crystal violet (Fluka, Buchs) in a solution of 70% of methanol, 1% of formaldehyde and 29% of water. The samples are evaluated under the microscope, magnification 300×. The greatest cytotoxic dilution is determined. The samples can also be evaluated quantitatively by means of scanning and absorption measurement in a spectrophotometer.
N.B.: On the subject of the eternalized Py6-cells cf.: "Biochemistry", Coordinating Editor Geoffrey L. Zubay, Addison-Wesley Publishing Company, 1983, p.1079.

[4] = Micellar size by dynamic light scattering; type: physicochemical; settings: aqueous emulsion 1:100 of 1%-concentrate; DLS
Text: [Measurement conducted with QLS=quasi-elastic, dynamic light scattering; tests performed at the Federal Institute for Technology, Zurich, Institute for Polymers (Prof. Dr. Pier Luigi LUISI and Prof. Dr. Peter SCHURTENBERGER)]. See: "Mode-selective dynamic light scattering; theory versus experimental realization", Thomas Gisler, et al., Applied Optics/Vol. 34, No. 18/Jun. 20, 1995, pp. 3546-3553.
Measurement conducted with aqueous emulsions 1:100 (CMC-marginal value for a homogenous spreading of the surfactants), prepared from the 1%-concentrates. Method: dynamic light scattering (DLS) in 3 angular positions each (60°, 90° and 120°), and with 10 single measurements taken each time. The instrument is a specially equipped "Fiberoptic Spectrometer" of the Institute for Polymers. Description of the method and the instrument, see: "Mode-selective dynamic light scattering: theory versus experimental realization". Thomas Gisler et al., Applied Optics/Vol. 34, No. 18/Jun. 20, 1995.

LEUKEMIA DAUDI-LINE = test: Vitality/proliferation test (Tritium), leukemia Daudi-line; type: cell-based, human; settings: controls 23'090 cpm
Text: (§2) 4.0 Comparative assays with human tumor cell lines
(§3) VITALITY TEST/1%-MARIGENOL-CONCENTRATE
(§4) 1 × 10^4 cells per well
(§5) Proliferation test (Tritium: 1 μCi/well H^+)

LEUKEMIA K 562 = test: Vitality/proliferation test (Tritium), leukemia K 562; type: cell-based, human; settings: controls 50'037 cpm
Text: as §2, §3, §4, §5

[5] = cited from earlier work

CCCCCCCCCCCCCCCC(=O)O[C@H]1CC[C@@]2(C)C(=CC[C@H]3[C@@H]4CC[C@H]([C@H](C)CC[C@@H](CC)C(C)C)[C@@]4(C)CC[C@@H]32)C1 [β-SITOSTERYL-PALMITATE, 3β-Stigmast-5-en-3-palmitate]
RESIDUAL HIV TITRE (CCID50) ([1]; concentrate 1'000 ppm, active substance 10 ppm): 2 CCID50 | RESIDUAL HIV TITRE (CCID50) ([1]; concentrate 10 ppm, active substance 0.1 ppm): 120 CCID50 | RESIDUAL HIV TITRE (CCID50) ([1]; concentrate 50 ppm, active substance 0.5 ppm): 76 CCID50 | RESIDUAL HIV TITRE (CCID50) ([1]; concentrate 100 ppm, active substance 1 ppm): 50 CCID50 | Percent reduction of plaques in VERO cell monolayers ([2]; dilution 1:10'000): 24% | Percent reduction of plaques in VERO cell monolayers ([2]; dilution 1:100'000): 0% | Number of the positive nuclei (anti P-72 antigens) (human CMV-strain AD169; microemulsion 1:1'000 = 1'000 ppm concentrate): 0 | Number of the positive nuclei (anti P-72 antigens) (human CMV-strain AD169; microemulsion 1:10'000 = 100 ppm concentrate): 2 | Cell-Lysis (VERO cells): Cell-Lysis

CCCCCC(=O)O[C@H]1CC[C@@]2(C)C(=CC[C@H]3[C@@H]4CC[C@H]([C@H](C)CC[C@@H](CC)C(C)C)[C@@]4(C)CC[C@@H]32)C1 [β-Sitosteryl-Caproylate]
protective action on MT-4 cells against HIV (HIV strain III B): very remarkable results | protective action on MT-4 cells against HIV (HIV strain III B; listed as β-Sitosterypl-Caproylate): Similar, though less remarkable results

C=CCCCCCCCCC(=O)Oc1cc(OC(=O)CCCCCCCCC=C)c2c(=O)c(OC(=O)CCCCCCCCC=C)c(-c3ccc(OC(=O)CCCCCCCCC=C)c(OC(=O)CCCCCCCCC=C)c3)oc2c1 [QUERCETIN-PENTA-UNDECENOATE, Quercetin-penta-10-undecenoate]
in dilution active up to 1: (calculated on active substance content, A.S.) ([3]; 24 h exposure): 25.6 Mio. | in dilution active up to 1: (calculated on active substance content, A.S.) ([3]; 48 h exposure): 100 Mio. | in dilution active up to 1: (microemulsion ME 1:100) ([3]; 48 h exposure): 1 Mio. | in dilution active up to 1: (calculated on active substance content, A.S.) ([3]; 72 h exposure): 200 Mio. | in dilution active up to 1: (microemulsion ME 1:100) ([3]; 72 h exposure): 2 Mio. | Percent reduction of plaques in VERO cell monolayers ([2]; dilution 1:10'000): 48% | Percent reduction of plaques in VERO cell monolayers ([2]; dilution 1:100'000): 0% | Cell-Lysis (VERO cells): Cell-Lysis | MICELLAR SIZE in nm [4]: 2-3 nm

CC(=O)O[C@H]1C(=O)[C@@]2(C)[C@H]([C@H](OC(=O)c3ccccc3)[C@]3(O)C[C@H](O)C(C)=C1C3(C)C)[C@]1(OC(C)=O)CO[C@@H]1C[C@@H]2O [BACCATIN III-A.S., Baccatin-III]
Proliferation test % (LEUKEMIA DAUDI-LINE; 10^-3): 3.0% | Proliferation test cpm (LEUKEMIA DAUDI-LINE; 10^-3): 708 cpm | Proliferation test % (LEUKEMIA DAUDI-LINE; 10^-4): 3.4% | Proliferation test cpm (LEUKEMIA DAUDI-LINE; 10^-4): 795 cpm | Proliferation test % (LEUKEMIA DAUDI-LINE; 10^-5): 61.4% | Proliferation test % (LEUKEMIA K 562; 10^-3): 1.3% | Proliferation test cpm (LEUKEMIA K 562; 10^-3): 680 cpm | Proliferation test % (LEUKEMIA K 562; 10^-4): 1.5% | Proliferation test cpm (LEUKEMIA K 562; 10^-4): 757 cpm | Proliferation test % (LEUKEMIA K 562; 10^-5): 6.3% | in dilution active up to 1: (calculated on active substance content, A.S.) ([3]; 24 h exposure): 12.8 Mio. | in dilution active up to 1: (calculated on active substance content, A.S.) ([3]; 48 h exposure): 12.8 Mio. | in dilution active up to 1: (calculated on active substance content, A.S.) ([3]; 72 h exposure): 100 Mio. | in dilution active up to 1: (microemulsion ME 1:100) ([3]; 72 h exposure): 1 Mio. | solubility in water [5]: very low

CCCCCCCC/C=C\CCCCCCCC(=O)Oc1ccc2c(c1)CC[C@@H]1[C@@H]2CC[C@]2(C)[C@@H](OC(=O)CCCCCCC/C=C\CCCCCCCC)CC[C@@H]12 [β-ESTRADIOL-DI-OLEATE]
MICELLAR SIZE in nm [4]: 2-3 nm
